pIC50: −log10 of the molar value.

For one assay, the target named is T1, PD-1/PD-L1 (Homo sapiens, UniProt Q9NZQ7).
T1 construct: made in house; host or cells: HEK293T
T1 sequence (Q9NZQ7 with tags, fused parts or gaps): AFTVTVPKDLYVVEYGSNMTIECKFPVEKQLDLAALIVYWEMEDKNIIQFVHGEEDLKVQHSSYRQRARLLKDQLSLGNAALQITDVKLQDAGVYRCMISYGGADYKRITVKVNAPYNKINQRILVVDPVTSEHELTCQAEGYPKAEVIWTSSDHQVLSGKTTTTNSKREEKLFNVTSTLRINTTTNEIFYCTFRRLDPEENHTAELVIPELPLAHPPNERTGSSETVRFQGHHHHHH
As to the kind of experiment: PD-1/PD-L1 Homogenous Time-Resolved Fluorescence (HTRF) binding assay. Conditions: PD-L1-His 10 nM, PD-1-Ig 20 nM; numeric IC50; read-out: Range or IC50. The method, boiled down:
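Read-out is time-resolved FRET between europium cryptate-labelled anti-Ig (1 nM final) and APC-labelled anti-His (20 nM final), both dispensed onto the binding mix. Assay buffer: dPBS containing 0.1% bovine serum albumin and 0.05% Tween-20.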
On to `CCN(CC)C(=O)c1cccc(-c2cccc(COc3cc(OCc4cncc(C#N)c4)c(CN4CCCC[C@H]4C(=O)O)cc3Cl)c2C)c1C` [Example 4040, (S)-1-(5-chloro-2-((5-cyanopyridin-3-yl)methoxy)-4-((3′-(diethylcarbamoyl)-2,2′-dimethyl-[1,1′-biphenyl]-3-yl)methoxy)benzyl)piperidine-2-carboxylic Acid], for which the pIC50 is 7.04.

Still in this assay, the particulars now being: PD-L1-His 10 nM, PD-1-Ig 20 nM; value given as range class; read-out: Range or IC50.
On to `Cc1c(COc2cc(OCc3cncc(C#N)c3)c(CN3CCCC[C@H]3C(=O)O)cc2Cl)cccc1-c1cccc(C(=O)N2CCCC2)c1C` [Example 4037, (S)-1-(5-chloro-2-((5-cyanopyridin-3-yl)methoxy)-4-((2,2′-dimethyl-3′-(pyrrolidine-1-carbonyl)-[1,1′-biphenyl]-3-yl)methoxy)benzyl)piperidine-2-carboxylic Acid], for which the negative logarithm of the IC50 (pIC50) was 5.70 to 7.00. On the same count and under the same terms, for `Cc1c(COc2cc(OCc3cncc(C#N)c3)c(CNC(CO)CO)cc2Cl)cccc1-c1cccc(C(=O)N2CCCC2)c1C` [Example 4038, 5-((4-chloro-2-(((1,3-dihydroxypropan-2-yl)amino)methyl)-5-((2,2′-dimethyl-3′-(pyrrolidine-1-carbonyl)-[1,1′-biphenyl]-3-yl)methoxy)phenoxy)methyl)nicotinonitrile] the value was 7.00 to 8.00; for `Cc1c(COc2cc(OCc3cncc(C#N)c3)c(CNC(C)(CO)CO)cc2Cl)cccc1-c1cccc(C(=O)N2CCCC2)c1C` [Example 4039, 5-((4-chloro-2-(((1,3-dihydroxy-2-methylpropan-2-yl)amino)methyl)-5-((2,2′-dimethyl-3′-(pyrrolidine-1-carbonyl)-[1,1′-biphenyl]-3-yl)methoxy)phenoxy)methyl)nicotinonitrile], 7.00 to 8.00; for `CCN(CC)C(=O)c1cccc(-c2cccc(COc3cc(OCc4cncc(C#N)c4)c(CN4CCC[C@H]4C(=O)O)cc3Cl)c2C)c1C` [Example 4041, (5-chloro-2-((5-cyanopyridin-3-yl)methoxy)-4-((3′-(diethylcarbamoyl)-2,2′-dimethyl-[1,1′-biphenyl]-3-yl)methoxy)benzyl)-L-proline], 5.70 to 7.00. With `CCN(CC)C(=O)c1cccc(-c2cccc(COc3cc(OCc4cncc(C#N)c4)c(CN4C[C@H](O)C[C@H]4C(=O)O)cc3Cl)c2C)c1C` [Example 4042, (2S,4R)-1-(5-chloro-2-((5-cyanopyridin-3-yl)methoxy)-4-((3′-(diethylcarbamoyl)-2,2′-dimethyl-[1,1′-biphenyl]-3-yl)methoxy)benzyl)-4-hydroxypyrrolidine-2-carboxylic Acid], the pIC50 was 5.70 to 7.00. As for `CCN(CC)C(=O)c1cccc(-c2cccc(COc3cc(OCc4cncc(C#N)c4)c(CN4C[C@@H](O)C[C@H]4C(=O)O)cc3Cl)c2C)c1C` [Example 4043, (2S,4S)-1-(5-chloro-2-((5-cyanopyridin-3-yl)methoxy)-4-((3′-(diethylcarbamoyl)-2,2′-dimethyl-[1,1′-biphenyl]-3-yl)methoxy)benzyl)-4-hydroxypyrrolidine-2-carboxylic Acid], the pIC50 was 7.00 to 8.00. Consider `CCN(CC)C(=O)c1cccc(-c2cccc(COc3cc(OCc4cncc(C#N)c4)c(CNC(CO)CO)cc3Cl)c2C)c1C` [Example 4044, 3′-((2-chloro-5-((5-cyanopyridin-3-yl)methoxy)-4-(((1,3-dihydroxypropan-2-yl)amino)methyl)phenoxy)methyl)-N,N-diethyl-2,2′-dimethyl-[1,1′-biphenyl]-3-carboxamide], for which the pIC50 was 5.70 to 7.00. As to `CCN(CC)C(=O)c1cccc(-c2cccc(COc3cc(OCc4cncc(C#N)c4)c(CNC(C)(CO)CO)cc3Cl)c2C)c1C` [Example 4045, 3′-((2-chloro-5-((5-cyanopyridin-3-yl)methoxy)-4-(((1,3-dihydroxy-2-methylpropan-2-yl)amino)methyl)phenoxy)methyl)-N,N-diethyl-2,2′-dimethyl-[1,1′-biphenyl]-3-carboxamide], the pIC50 is 5.70 to 7.00. For the molecule `CCN(CC)C(=O)c1cccc(-c2cccc(COc3cc(OCc4cncc(C#N)c4)c(CN4CCOC[C@H]4C(=O)O)cc3Cl)c2C)c1C` [Example 4046, (S)-4-(5-chloro-2-((5-cyanopyridin-3-yl)methoxy)-4-((3′-(diethylcarbamoyl)-2,2′-dimethyl-[1,1′-biphenyl]-3-yl)methoxy)benzyl)morpholine-3-carboxylic Acid], the pIC50 was 5.70 to 7.00. On to `Cc1c(COc2cc(OCc3cncc(C#N)c3)c(CN3CCCC[C@H]3C(=O)O)cc2Cl)cccc1-c1cccc(C(=O)N2CCOCC2)c1C` [Example 4048, (S)-1-(5-chloro-2-((5-cyanopyridin-3-yl)methoxy)-4-((2,2′-dimethyl-3′-(morpholine-4-carbonyl)-[1,1′-biphenyl]-3-yl)methoxy)benzyl)piperidine-2-carboxylic Acid], for which the pIC50 was 5.70 to 7.00. Regarding `Cc1c(COc2cc(OCc3cncc(C#N)c3)c(CN3CCC[C@H]3C(=O)O)cc2Cl)cccc1-c1cccc(C(=O)N2CCOCC2)c1C` [Example 4049, (5-chloro-2-((5-cyanopyridin-3-yl)methoxy)-4-((2,2′-dimethyl-3′-(morpholine-4-carbonyl)-[1,1′-biphenyl]-3-yl)methoxy)benzyl)-L-proline], the pIC50 is 5.70 to 7.00. In the case of `Cc1c(COc2cc(OCc3cncc(C#N)c3)c(CN3C[C@H](O)C[C@H]3C(=O)O)cc2Cl)cccc1-c1cccc(C(=O)N2CCOCC2)c1C` [Example 4050, (2S,4R)-1-(5-chloro-2-((5-cyanopyridin-3-yl)methoxy)-4-((2,2′-dimethyl-3′-(morpholine-4-carbonyl)-[1,1′-biphenyl]-3-yl)methoxy)benzyl)-4-hydroxypyrrolidine-2-carboxylic Acid], the pIC50 is 5.70 to 7.00. Same read-out and setting: under `Cc1c(COc2cc(OCc3cncc(C#N)c3)c(CN3C[C@@H](O)C[C@H]3C(=O)O)cc2Cl)cccc1-c1cccc(C(=O)N2CCOCC2)c1C` [Example 4051, (2S,4S)-1-(5-chloro-2-((5-cyanopyridin-3-yl)methoxy)-4-((2,2′-dimethyl-3′-(morpholine-4-carbonyl)-[1,1′-biphenyl]-3-yl)methoxy)benzyl)-4-hydroxypyrrolidine-2-carboxylic Acid] stands 7.00 to 8.00; under `Cc1c(COc2cc(OCc3cncc(C#N)c3)c(CNC(CO)CO)cc2Cl)cccc1-c1cccc(C(=O)N2CCOCC2)c1C` [Example 4052, 5-((4-chloro-2-(((1,3-dihydroxypropan-2-yl)amino)methyl)-5-((2,2′-dimethyl-3′-(morpholine-4-carbonyl)-[1,1′-biphenyl]-3-yl)methoxy)phenoxy)methyl)nicotinonitrile], 7.00 to 8.00. On to `Cc1c(COc2cc(OCc3cncc(C#N)c3)c(CNC(C)(CO)CO)cc2Cl)cccc1-c1cccc(C(=O)N2CCOCC2)c1C` [Example 4053, 5-((4-chloro-2-(((1,3-dihydroxy-2-methylpropan-2-yl)amino)methyl)-5-((2,2′-dimethyl-3′-(morpholine-4-carbonyl)-[1,1′-biphenyl]-3-yl)methoxy)phenoxy)methyl)nicotinonitrile], for which the pIC50 was 7.00 to 8.00. Take `Cc1c(COc2cc(OCc3cncc(C#N)c3)c(CN3CCOC[C@H]3C(=O)O)cc2Cl)cccc1-c1cccc(C(=O)N2CCOCC2)c1C` [Example 4054, (S)-4-(5-chloro-2-((5-cyanopyridin-3-yl)methoxy)-4-((2,2′-dimethyl-3′-(morpholine-4-carbonyl)-[1,1′-biphenyl]-3-yl)methoxy)benzyl)morpholine-3-carboxylic Acid]: the pIC50 is 5.70 to 7.00. `Cc1c(COc2cc(OCc3cncc(C#N)c3)c(CN[C@@H](CO)C(=O)O)cc2Cl)cccc1-c1cccc(C(=O)N2CCOCC2)c1C` [Example 4055, (5-chloro-2-((5-cyanopyridin-3-yl)methoxy)-4-((2,2′-dimethyl-3′-(morpholine-4-carbonyl)-[1,1′-biphenyl]-3-yl)methoxy)benzyl)-L-serine]: the pIC50 was 7.00 to 8.00. With `Cc1c(COc2cc(OCc3cncc(C#N)c3)c(CN[C@@H](CNC(=O)OC(C)(C)C)C(=O)O)cc2Cl)cccc1-c1cccc(C(=O)N2CCOCC2)c1C` [Example 4056, (S)-3-((tert-butoxycarbonyl)amino)-2-((5-chloro-2-((5-cyanopyridin-3-yl)methoxy)-4-((2,2′-dimethyl-3′-(morpholine-4-carbonyl)-[1,1′-biphenyl]-3-yl)methoxy)benzyl)amino)propanoic Acid], the pIC50 was 5.70 to 7.00. Same read-out and setting: for `Cc1c(COc2cc(OCc3cncc(C#N)c3)c(CNC(CO)(CO)CO)cc2Cl)cccc1-c1cccc(C(=O)N2CCOCC2)c1C` [Example 4058, 5-((4-chloro-2-(((1,3-dihydroxy-2-(hydroxymethyl)propan-2-yl)amino)methyl)-5-((2,2′-dimethyl-3′-(morpholine-4-carbonyl)-[1,1′-biphenyl]-3-yl)methoxy)phenoxy)methyl)nicotinonitrile] the value was 7.00 to 8.00.

In the case of `Cc1c(COc2cc(OCc3cncc(C#N)c3)c(CN[C@@H](CN)C(=O)O)cc2Cl)cccc1-c1cccc(C(=O)N2CCOCC2)c1C` [Example 4059, (S)-3-amino-2-((5-chloro-2-((5-cyanopyridin-3-yl)methoxy)-4-((2,2′-dimethyl-3′-(morpholine-4-carbonyl)-[1,1′-biphenyl]-3-yl)methoxy)benzyl)amino)propanoic Acid], the pIC50 was 5.70 to 7.00. The same measure, in the same setting: under `Cc1c(COc2cc(OCc3cncc(C#N)c3)c(CN3CCNC[C@H]3C(=O)O)cc2Cl)cccc1-c1cccc(C(=O)N2CCOCC2)c1C` [Example 4060, (S)-1-(5-chloro-2-((5-cyanopyridin-3-yl)methoxy)-4-((2,2′-dimethyl-3′-(morpholine-4-carbonyl)-[1,1′-biphenyl]-3-yl)methoxy)benzyl)piperazine-2-carboxylic Acid] stands 5.70 to 7.00.

The values are drawn from patent US10745382B2 (BRISTOL-MYERS SQUIBB COMPANY, priority 2015, dated 2020).
